Test results from PubChem BioAssay (NCI).
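48-hour exposure; five concentrations; linearly interpolated endpoints. TGI is the concentration that stops growth completely.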

Legend:
Assay in all cases: NCI tumour cell line growth inhibition, 48 h
HS 578T breast = system: HS 578T breast
LOX IMVI melanoma = system: LOX IMVI melanoma
K-562 leukemia = system: K-562 leukemia
MDA-MB-231 breast = system: MDA-MB-231 breast
NCI-H23 lung = system: NCI-H23 lung
MALME-3M melanoma = system: MALME-3M melanoma
NCI/ADR-RES ovarian = system: NCI/ADR-RES ovarian
ACHN renal = system: ACHN renal
SNB-19 CNS = system: SNB-19 CNS
OVCAR-5 ovarian = system: OVCAR-5 ovarian
CCRF-CEM leukemia = system: CCRF-CEM leukemia
BT-549 breast = system: BT-549 breast
OVCAR-3 ovarian = system: OVCAR-3 ovarian
SF-268 CNS = system: SF-268 CNS
UO-31 renal = system: UO-31 renal
OVCAR-8 ovarian = system: OVCAR-8 ovarian
HCT-116 colon = system: HCT-116 colon
DU-145 prostate = system: DU-145 prostate
SF-539 CNS = system: SF-539 CNS
UACC-257 melanoma = system: UACC-257 melanoma

SMILES	TGI (HS 578T breast) [µM]	TGI (LOX IMVI melanoma) [µM]	TGI (K-562 leukemia) [µM]	TGI (MDA-MB-231 breast) [µM]	TGI (NCI-H23 lung) [µM]	TGI (MALME-3M melanoma) [µM]	TGI (NCI/ADR-RES ovarian) [µM]	TGI (ACHN renal) [µM]	TGI (SNB-19 CNS) [µM]	TGI (OVCAR-5 ovarian) [µM]	TGI (CCRF-CEM leukemia) [µM]	TGI (BT-549 breast) [µM]	TGI (OVCAR-3 ovarian) [µM]	TGI (SF-268 CNS) [µM]	TGI (UO-31 renal) [µM]	TGI (OVCAR-8 ovarian) [µM]	TGI (HCT-116 colon) [µM]	TGI (DU-145 prostate) [µM]	TGI (SF-539 CNS) [µM]	TGI (UACC-257 melanoma) [µM]
C=C(CCOC)CCC1CCCCC(CN(C)C)C1=O (centres undefined)	> 100	> 100	> 100	> 100	> 100	> 100	> 100	> 100	> 100	> 100	> 100	> 100	> 100	> 100	> 100	> 100	> 100	> 100	–	–
C=CC[C@]1(/C=N/O)CN(S(=O)(=O)CC[Si](C)(C)C)C[C@H]2CC=CC[C@H]21	–	40.4	67.5	44.2	> 100	40.4	> 100	–	42.3	44.2	40.7	80.7	–	> 100	> 100	67.3	27.3	46.9	32.8	60.6
N[C@@H]1CCN(c2c(F)cc3c(=O)c(C(=O)O)cn4c3c2Oc2c-4ccc3c2ccc2ccccc23)C1	> 100	> 100	> 100	–	> 100	–	> 100	4.25	10.4	> 100	–	> 100	> 100	> 100	> 100	> 100	–	> 100	> 100	> 100
Cc1ccc(C(=O)O)c(/C=C2\Cc3ccc(C)cc3C2=O)c1	> 100	> 100	> 100	–	> 100	> 100	> 100	> 100	> 100	> 100	> 100	> 100	> 100	> 100	> 100	> 100	> 100	> 100	49.3	> 100
Cc1c(N2C(=O)C(Cl)C2/C=C/c2ccccc2)c(=O)n(-c2ccccc2)n1C (centres undefined)	–	34.5	51.1	72.8	32.8	25	> 100	45.6	–	> 100	48.1	> 100	> 100	> 100	92.4	56.4	34.8	> 100	62.3	33
COc1ccc2nc(N/N=C/c3sccc3C)cc(C)c2c1	55.3	32.9	> 100	16.1	28.9	31.3	55.1	56.2	> 100	61.3	67	32.2	45.8	47.8	65.1	> 100	23.8	44.5	–	32.3
C=C(C)C1CCC(C(=O)O)CC1 (centres undefined)	> 100	> 100	> 100	> 100	> 100	> 100	–	> 100	> 100	> 100	> 100	> 100	> 100	> 100	> 100	> 100	> 100	> 100	> 100	> 100
COc1c(=O)cc2cc[nH]c3cc[nH]c1c23	> 100	> 100	> 100	> 100	> 100	> 100	> 100	> 100	> 100	> 100	> 100	> 100	47.8	–	> 100	> 100	> 100	> 100	–	> 100
CC1(C)C2CCC1(C)C(N/C(Sc1ccccc1)=C(/C(Cl)=C(Cl)Cl)[N+](=O)[O-])C2 (centres undefined)	–	–	> 100	22	27.6	28.4	30.5	26.3	43.9	65.5	–	28.8	17.7	24.4	26	27.3	28.8	61.1	26.2	27.4
N#CSCC(Cl)=CCl (mixture of isomers)	> 100	71.7	> 100	> 100	> 100	> 100	> 100	> 100	> 100	> 100	> 100	–	> 100	> 100	> 100	> 100	> 100	> 100	> 100	> 100
Cc1ccc(-n2[nH]nc(C(N)=O)c2=O)cc1	> 100	–	> 100	> 100	> 100	> 100	> 100	> 100	> 100	> 100	> 100	> 100	> 100	> 100	> 100	> 100	> 100	> 100	–	> 100
Cc1nc2ccc(Br)cc2c(=O)n1-c1nnc(C(C)(C)C)s1	> 10	> 10	> 10	> 10	> 10	–	> 10	> 10	> 10	> 10	> 10	–	> 10	> 10	4.45	> 10	> 10	> 10	> 10	> 10
CC(C)(C)C1CCC(=O)/C(=C/CC2CC(=O)N(c3ccccc3)C(=O)C2)C1 (centres undefined)	94.5	29.7	48.3	> 100	34.6	36.7	37.7	42.9	51.6	41.6	–	44.5	47.7	47.1	30.2	39.8	29.3	40	–	28.2
